pEC50, pIC50: −log10 of the molar value.
Tests used:
[1] = test system: p21 induction in HCT 116 cells; experiment: p21 induction in cells (In-Cell Western, p21/GAPDH ratio); type: cell-based; details: Homo sapiens, 24 h compound incubation, read-out: p21_EC50
Experimental: The colon carcinoma cell line HCT 116 was obtained from ATCC and cultured in growth medium consisting of Mccoy's 5A Medium (Gibco 16600108) supplemented with 10% FBS (Transgene FS201-02) and 100 units/mL penicillin-streptomycin (Gibco 15140122) and maintained at 37° C. under 5% CO2. On the day of seeding, 2,000 cells in 30 μL of culture media were plated per well to Poly-D-Lysine 384 Well Black Clear Plates (Biocoat 356663) and incubated overnight at 37° C. under 5% CO2. The following day, compounds were serially diluted in DMSO for a total of 11 test concentrations. The typical starting concentration of compounds was 10 μM with 2-fold dilutions. Next, 150 nL of diluted compound was added in duplicate to the assay plate, using an Echo 655 (Labcyte). The plate was centrifuged at 500 RPM for 1 min and then incubated at 37° C. under 5% CO2 for 24 h. After 24 h, medium was removed, and cells were fixed by adding 40 μL of 4% paraformaldehyde solution to each well and incubated for 20 min at room temperature. The plate was then washed 4 times with 100 μL per well of wash buffer (PBS with 0.1% Tween-20) using a microplate washer. Next, 30 μL of ice-cold methanol was added to each well and the plate was incubated at −20° C. for 10 min. The plate was washed 4 times with 100 μL per well of wash buffer by a microplate washer, then 30 μL per well of blocking buffer ((Intercept PBS blocking buffer (LI-COR 927-70001) with 0.05% Tween-20)) was added and the plate was incubated at room temperature with shaking for 2 h. Next, to each test well, 20 μL of primary antibody solution (p21 Wafl/CIP (12D1) RabbitmAb (Cell Signaling Technologies 2947) diluted 1:1000 and GAPDH (D4C6R) Mouse mAb (Cell Signaling Technologies 97166) diluted 1:2000 in blocking buffer) was added and the plate was placed at 4° C., overnight. The following day, the plate was washed 5 times with 100 μL per well of wash buffer using a microplate washer for 5 min. 20 μL per well of secondary antibody (IRDye 680CW Goat anti-Mouse IgG (H+L) (LI-COR 926-68070) diluted 1:2000 in Blocking Buffer and IRDye 800CW Goat anti-Rabbit IgG (H+L) (LI-COR 926-32211) diluted 1:2000 in Blocking Buffer) was then added and the plate was stored for 2 h in the dark at room temperature with shaking. The plate was then washed 4 times with 100 μL per well of wash buffer again using a microplate washer. Finally, the p21 signal and the GAPDH signal were quantified using a LI-COR Odyssey CLx Imager machine reading at 800 nm and 700 nm, respectively. Each plate contained DMSO control (low control) and an internal reference WRN inhibitor (high control) respectively. For quantitation, the 800 nm/700 nm ratio was calculated for each well to give fold p21 induction and then percent activation for each compound well was calculated as follows (100×(ratio cpd well-ratio low control)/(ratio high control−ratio low control). EC50 values for each compound was generated after non-linear regression curve fitting using commercially available software.

[2] = molecular target: human Werner helicase (WRN, amino acids 517-1235 with L1074F point mutation) (Homo sapiens (Human), UniProt Q14191, L1074F); experiment: WRN (BV08) ADP-Glo assay; type: biochemical; details: human WRN (aa 517-1235, L1074F), read-out: ADP-Glo_hWRN_IC50
Sequence of human Werner helicase (WRN, amino acids 517-1235 with L1074F point mutation) (Q14191 other isoform, or with tags, fused parts or gaps L1074F (already in the parent)): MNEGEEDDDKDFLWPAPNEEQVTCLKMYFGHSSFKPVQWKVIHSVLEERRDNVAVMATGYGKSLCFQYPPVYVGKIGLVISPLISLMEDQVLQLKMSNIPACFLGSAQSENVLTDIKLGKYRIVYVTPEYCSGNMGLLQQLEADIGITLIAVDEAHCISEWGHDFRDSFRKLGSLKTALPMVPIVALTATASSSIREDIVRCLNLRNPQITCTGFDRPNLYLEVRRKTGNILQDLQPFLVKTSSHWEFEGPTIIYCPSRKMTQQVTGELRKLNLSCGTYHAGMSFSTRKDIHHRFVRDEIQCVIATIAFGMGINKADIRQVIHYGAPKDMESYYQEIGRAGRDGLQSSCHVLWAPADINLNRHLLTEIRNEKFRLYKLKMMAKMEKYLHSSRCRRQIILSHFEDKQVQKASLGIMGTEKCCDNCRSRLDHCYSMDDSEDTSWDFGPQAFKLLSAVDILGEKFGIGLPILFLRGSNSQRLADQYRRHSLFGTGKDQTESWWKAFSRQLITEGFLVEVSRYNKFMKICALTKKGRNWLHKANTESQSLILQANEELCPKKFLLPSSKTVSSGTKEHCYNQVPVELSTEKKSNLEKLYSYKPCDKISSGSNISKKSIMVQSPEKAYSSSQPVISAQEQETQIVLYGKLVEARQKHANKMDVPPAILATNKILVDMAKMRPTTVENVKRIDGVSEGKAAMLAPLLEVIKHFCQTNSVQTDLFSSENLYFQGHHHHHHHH
Text: Bovine skin gelatin (BSG), dimethyl sulfoxide (DMSO), Pluronic F-127 and tris(2-carboxyethyl)phosphine hydrochloride solution (TCEP) were purchased from Sigma-Aldrich (St. Louis, MO) at the highest level of purity possible. Bicine buffer solution was purchased from Alfa Aesar (Tewksbury, MA) and compound NSC-617145 was purchased from Tocris (Minneapolis, MN). DNA duplex was synthesized at BGI (Shenzhen, China) and was composed of strand 1 with the sequence 5′-[…]-3′ (SEQ ID NO.: 1) and strand 2 with the sequence 5′-[…]-3′ (SEQ ID NO.: 2). DNA strands were annealed by heating to 95° C. for 5 minutes followed by slow cooling to room temperature. Compounds in 100% DMSO (0.1 μl) were spotted into a 384-well white polystyrene Optiplate-384 (Perkin Elmer; Waltham, MA) assay plate using a LabCyte Echo 550 (Agilent; Santa Clara, CA). DMSO (0.1 μl) was added to columns 12, rows A-H and column 24, rows I-P for the maximum signal control. Compound NSC-617145 (0.1 μl) was added to columns 12, rows I-P and 24, rows A-H for the minimum signal control (100% inhibition). Compounds/DMSO were preincubated for 15 minutes at 25° C. with 5 μl 2×WRN (BV08), prepared as described below, in assay buffer containing 20 mM Bicine (pH=7.5), 1 mM MgCl2, 10 mM KCl, 0.1% Pluronic F-127, 0.005% BSG, 1 mM TCEP. The reaction was initiated by the addition of 5 μl 2× substrate mixture in assay buffer and incubated for 60 minutes at 25° C. The final concentrations of the assay components were 0.15 nM WRN, 5 μM ATP, and 0.1 nM DNA duplex. The final DMSO concentration was 1% and the reference compound concentration (NSC-617145) used for the minimal signal control was 20 μM. The reaction was stopped by the addition of the ADP-Glo Kit components (Promega; Madison, WI) as directed and the relative luminescence units (RLU) were read on an Envision 2104 (Perkin Elmer; Waltham, MA).
% inhibition calculation:
% INH=(RLU MAX−RLU sample)/(RLU MAX−RLU MIN))×100
Where RLU=relative luminescence units, sample=signal in sample well, and MIN and MAX are the respective minimum and maximum signal controls. Four-parameter IC50 fit equation:
Y=Bottom+(Top−Bottom)/(1+(IC50/X)^Hill Slope)
Where top and bottom are normally allowed to float but may be fixed at 100 or 0 respectively in a 3-parameter fit. Y is the % inhibition and X is the compound concentration.
Molecular Biology and virus production. The DNA encoding human Werner helicase (Uniprot Q14191, amino acids 517-1235 with L1074F point mutation) was generated with codon-optimization for E. coli expression and subcloned into the pFastBac vector with a TEV cleavable 8×His tag (WRN—BV08). The baculovirus from the expression plasmid WRN—BV08 was generated from transfection and amplification following the manufacturer's instructions.
Sf9 cells grown in SF900II media were infected with 1:200 WRN—BV08 P2 virus and incubated for protein expression for 72 h at 27° C. The WRN protein was purified using the following protocol. The cell pellets were thawed and resuspended in buffer A (50 mM Tris, pH 7.5, 500 mM NaCl, 1 mM TCEP, 10% Glycerol) supplemented with 0.5% CHAPS, 1 mM PMSF, […] Leupeptin, 1 μg/ml Pepstatin, and the Pierce Universal Nuclease and cocktail tablet. Cleared lysates were loaded onto a Ni Sepharose™ excel column and washed with buffer A and bound protein was eluted with buffer A supplemented with 300 mM imidazole. The eluted protein was dialyzed against buffer A and digested by His-tagged TEV (1:5 ratio) overnight at 4° C. ZnCl2 was added into the sample at final 15 μM before loading onto a second Ni Sepharose™ excel column. Untagged WRN protein was eluted from the column with buffer A supplemented with 20 mM imidazole, dialyzed overnight into buffer B (50 mM Tris, pH 7.5, 1 mM TCEP, 10% Glycerol) supplemented with 150 mM NaCl and loaded onto a Heparin column. Proteins were eluted with a step gradient of buffer B supplemented with 150 mM, 200 mM, 300 mM and 500 mM NaCl. […]

Row | SMILES | pEC50 [1] | pIC50 [2]
1 | CCc1c(N2CCN(C(=O)c3c(OC)ncc(C)c3O)[C@H]3CC[C@@H]32)c(=O)c2nn(-c3ccnc(C)c3)nc2n1CC(=O)Nc1ccc(C(F)(F)F)cc1F [Compound I-95, 2-{5-ethyl-6-[(1S,6S)-5-(4-hydroxy-2-methoxy-5-methylpyridine-3-carbonyl)-2,5-diazabicyclo[4.2.0]octan-2-yl]-2-(2-methylpyridin-4-yl)-7-oxo-2H,4H,7H-[1,2,3]triazolo[4,5-b]pyridin-4-yl}-N-[2-fluoro-4-(trifluoromethyl)phenyl]acetamide] | ≥ 6.30 | ≥ 8.30
2 | CCc1c(N2CCN(C(=O)c3ncnc(C)c3O)CC2)c(=O)c2nn(-c3ccnc(C)c3)nc2n1CC(=O)Nc1ccc(C(F)(F)F)cc1Cl [Compound I-7, N-(2-chloro-4-(trifluoromethyl)phenyl)-2-(5-ethyl-6-(4-(5-hydroxy-6-methylpyrimidine-4-carbonyl)piperazin-1-yl)-2-(2-methylpyridin-4-yl)-7-oxo-2,7-dihydro-4H-[1,2,3]triazolo[4,5-b]pyridin-4-yl)acetamide] | ≥ 6.30 | ≥ 8.30
3 | CCc1c(N2CCN(C(=O)c3ncnc(C)c3O)CC2)c(=O)c2nn(-c3cc(C)n(C)n3)nc2n1CC(=O)Nc1ccc(C(F)(F)F)cc1Cl [Compound I-113, N-[2-chloro-4-(trifluoromethyl)phenyl]-2-[2-(1,5-dimethyl-1H-pyrazol-3-yl)-5-ethyl-6-[4-(5-hydroxy-6-methylpyrimidine-4-carbonyl)piperazin-1-yl]-7-oxo-2H,4H,7H-[1,2,3]triazolo[4,5-b]pyridin-4-yl]acetamide] | ≥ 6.30 | 7.30 to 8.30
4 | CCc1c(N2CCN(C(=O)c3ncnc(C)c3O)[C@H]3CC[C@@H]32)c(=O)c2nn(-c3ccnc(OC)c3)nc2n1CC(=O)NC1CC2(C1)CC(F)(F)C2 [Compound I-70, N-{6,6-difluorospiro[3.3]heptan-2-yl}-2-{5-ethyl-6-[(1S,6S)-5-(5-hydroxy-6-methylpyrimidine-4-carbonyl)-2,5-diazabicyclo[4.2.0]octan-2-yl]-2-(2-methoxypyridin-4-yl)-7-oxo-2H,4H,7H-[1,2,3]triazolo[4,5-b]pyridin-4-yl}acetamide] | 5.70 to 6.30 | 7.30 to 8.30
5 | CCc1c(N2CCN(C(=O)c3c(OC)ncc(C)c3O)CC2)c(=O)c2nn(-c3ccnc(OC)c3)nc2n1CC(=O)NC1CC2(C1)CC(C)(C)C2 [Compound I-105, N-{6,6-dimethylspiro[3.3]heptan-2-yl}-2-{5-ethyl-6-[4-(4-hydroxy-2-methoxy-5-methylpyridine-3-carbonyl)piperazin-1-yl]-2-(2-methoxypyridin-4-yl)-7-oxo-2H,4H,7H-[1,2,3]triazolo[4,5-b]pyridin-4-yl}acetamide] | < 5.30 | 7.30 to 8.30

Continued, values first:

Row | pEC50 [1] | pIC50 [2] | SMILES
6 | ≥ 6.30 | 7.30 to 8.30 | CCc1c(N2CCN(C(=O)c3nccnc3OC)[C@H]3CC[C@@H]32)c(=O)c2nn(C3=CCOCC3)nc2n1CC(=O)NC12CC(C(C)C)(C1)C2 [Compound I-200, 2-[2-(3,6-dihydro-2H-pyran-4-yl)-5-ethyl-6-[(1S,6S)-5-(3-methoxypyrazine-2-carbonyl)-2,5-diazabicyclo[4.2.0]octan-2-yl]-7-oxo-2H,4H,7H-[1,2,3]triazolo[4,5-b]pyridin-4-yl]-N-[3-(propan-2-yl)bicyclo[1.1.1]pentan-1-yl]acetamide]
7 | ≥ 6.30 | 7.30 to 8.30 | CCc1c(N2CCN(C(=O)c3ncnc(C)c3O)[C@H]3CC[C@@H]32)c(=O)c2nn(-c3ccnc(OC)c3)nc2n1CC(=O)NC12CC(C(C)(F)F)(C1)C2 [Compound I-27, N-(3-(1,1-difluoroethyl)bicyclo[1.1.1]pentan-1-yl)-2-(5-ethyl-6-((1S,6S)-5-(5-hydroxy-6-methylpyrimidine-4-carbonyl)-2,5-diazabicyclo[4.2.0]octan-2-yl)-2-(2-methoxypyridin-4-yl)-7-oxo-2,7-dihydro-4H-[1,2,3]triazolo[4,5-b]pyridin-4-yl)acetamide]
8 | ≥ 6.30 | 7.30 to 8.30 | CCc1c(N2CCN(C(=O)c3cccc4oc(=O)[nH]c34)[C@H]3CC[C@@H]32)c(=O)c2nn(C3=CCOCC3)nc2n1CC(=O)NC12CC(C(C)C)(C1)C2 [Compound I-199, 2-[2-(3,6-dihydro-2H-pyran-4-yl)-5-ethyl-7-oxo-6-[(1S,6S)-5-(2-oxo-2,3-dihydro-1,3-benzoxazole-4-carbonyl)-2,5-diazabicyclo[4.2.0]octan-2-yl]-2H,4H,7H-[1,2,3]triazolo[4,5-b]pyridin-4-yl]-N-[3-(propan-2-yl)bicyclo[1.1.1]pentan-1-yl]acetamide]
9 | ≥ 6.30 | 7.30 to 8.30 | CCc1c(N2CCN(C(=O)c3ncnc(C)c3O)[C@H]3CC[C@@H]32)c(=O)c2nn(-c3ccccn3)nc2n1CC(=O)NC12CC(C(C)C)(C1)C2 [Compound I-22, 2-(5-ethyl-6-((1S,6S)-5-(5-hydroxy-6-methylpyrimidine-4-carbonyl)-2,5-diazabicyclo[4.2.0]octan-2-yl)-7-oxo-2-(pyridin-2-yl)-2,7-dihydro-4H-[1,2,3]triazolo[4,5-b]pyridin-4-yl)-N-(3-isopropylbicyclo[1.1.1]pentan-1-yl)acetamide]

— US20250129069A1, “TRIAZOLO WRN INHIBITORS” (Nimbus Wadjet, Inc., priority 2023, published 2025)
